Here are results for nine compounds from PubChem BioAssay (NCI).

Test systems include PC-3 prostate; HOP-92 NSCLC; MCF7 breast; EKVX NSCLC; SF-295 CNS; BT-549 breast; MALME-3M melanoma; 786-0 renal; SNB-75 CNS; OVCAR-4 ovarian.
Holding throughout (test): growth of human tumour cells (NCI), 48 h

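1) Cells in 96-well plates. 2) Compound, 48 h, 5 concentrations. 3) Linear interpolation between surrounding doses. 4) Unreached endpoint = highest concentration. GI50 is the concentration that inhibits growth by half. TGI marks complete inhibition of growth.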

With `CC(C)(C)OC(=O)NCCCn1c2c(c3ccccc3c1=O)C(=O)c1ccccc1-2`, the GI50 in the experiment with PC-3 prostate was 51.5 µM; with HOP-92 NSCLC, 12.5 µM; in the experiment with MCF7 breast, 15 µM; in the experiment on EKVX NSCLC, 38.9 µM; with SF-295 CNS, 16.8 µM; with BT-549 breast it was 31.7 µM. The GI50 in the experiment on MALME-3M melanoma was 32.9 µM; in the experiment on 786-0 renal it was 15.1 µM. Moreover, the TGI was over 100 µM in the experiment on PC-3 prostate; 43.5 µM in the experiment with HOP-92 NSCLC; 39.4 µM in the experiment with MCF7 breast; over 100 µM in the experiment with EKVX NSCLC; 44.6 µM in the experiment on SF-295 CNS; over 100 µM with BT-549 breast. Besides, the TGI in the experiment on MALME-3M melanoma was over 100 µM; with 786-0 renal, 41.6 µM.
With `O=c1[nH]c2nc(NC3CCOCC3)ncc2cc1Oc1ccc(F)cc1F`, the GI50 in the experiment on PC-3 prostate was over 25 µM; in the experiment with HOP-92 NSCLC it was over 25 µM; in the experiment with SNB-75 CNS, over 8.27 µM; with OVCAR-4 ovarian, over 25 µM; in the experiment with MCF7 breast it was over 25 µM; with SF-295 CNS, over 25 µM. Besides, the GI50 with BT-549 breast, with MALME-3M melanoma and in the experiment with 786-0 renal was over 25 µM in each case. For the same compound, the TGI with PC-3 prostate, with HOP-92 NSCLC, in the experiment with SNB-75 CNS, with OVCAR-4 ovarian, in the experiment with MCF7 breast and in the experiment with SF-295 CNS was over 25 µM in each case. In addition, the TGI in the experiment with BT-549 breast, with MALME-3M melanoma and in the experiment with 786-0 renal was over 25 µM each time.
In the case of `CCCCCC[C@H](C)Nc1nc2ccccc2c2occc12`, the GI50 in the experiment on PC-3 prostate is 14.8 µM; with HOP-92 NSCLC, 5.18 µM; in the experiment on SNB-75 CNS, 14.8 µM; in the experiment with MCF7 breast, over 100 µM; in the experiment on EKVX NSCLC, 2.26 µM; with SF-295 CNS, 6.01 µM. The results for the GI50 with BT-549 breast and in the experiment on 786-0 renal were 4.38 µM and 9.87 µM, respectively. Further, the TGI with PC-3 prostate was 35.5 µM; in the experiment on HOP-92 NSCLC it was 20.2 µM; in the experiment with SNB-75 CNS, 30.5 µM; with MCF7 breast, over 100 µM; in the experiment on EKVX NSCLC it was 7.04 µM; in the experiment on SF-295 CNS, 25.5 µM. The TGI with BT-549 breast was 18.5 µM; with 786-0 renal, 21.7 µM.
Turning to `O=c1[nH]c2ccccc2n1CCCN1CCC(n2c(=O)[nH]c3cc(Cl)ccc32)CC1`, the TGI in the experiment with PC-3 prostate came to 43.9 µM; with HOP-92 NSCLC, 58.2 µM; with OVCAR-4 ovarian, 37.9 µM; with MCF7 breast, 34.9 µM; with EKVX NSCLC, 42.7 µM; in the experiment with BT-549 breast it was 33.2 µM. The figures for the TGI with MALME-3M melanoma and with 786-0 renal were 32 µM and 30 µM, respectively.
Regarding `COc1cc(NC(=O)CCSc2nc3ccc(C)cc3c(=O)n2Cc2ccccc2)cc(OC)c1OC`, the GI50 in the experiment on PC-3 prostate is 5.39 µM; with HOP-92 NSCLC, 1.9 µM; in the experiment with SNB-75 CNS it was 1.9 µM; with OVCAR-4 ovarian, 3.95 µM; in the experiment on MCF7 breast, 32 µM; in the experiment on BT-549 breast, 5.02 µM. The GI50 in the experiment on MALME-3M melanoma was 4.73 µM; in the experiment with 786-0 renal, 4.17 µM. The TGI in the experiment with PC-3 prostate is over 100 µM; with HOP-92 NSCLC, 7.99 µM; in the experiment on SNB-75 CNS, 4.78 µM; in the experiment with OVCAR-4 ovarian it was over 100 µM; in the experiment with MCF7 breast it was over 100 µM; in the experiment with BT-549 breast, over 100 µM. The TGI in the experiment with MALME-3M melanoma was 43.4 µM; in the experiment on 786-0 renal, 19.2 µM.
As to `COc1cc2c(cc1OC)C(=O)/C(=C/c1cc(-c3ccc4c(c3)OCO4)n[nH]1)C2`, the GI50 in the experiment on PC-3 prostate is 1.29 µM; with SNB-75 CNS, 1.65 µM; in the experiment on OVCAR-4 ovarian, 1.11 µM; in the experiment with MCF7 breast, 0.339 µM; in the experiment with SF-295 CNS it was 1.64 µM; in the experiment on BT-549 breast, 1.62 µM. Further, the results for the GI50 in the experiment on MALME-3M melanoma and in the experiment on 786-0 renal were 1.74 µM and 1.61 µM, respectively. Moreover, the TGI came out at 2.92 µM with PC-3 prostate; 3.02 µM in the experiment with SNB-75 CNS; 2.36 µM with OVCAR-4 ovarian; 1.42 µM in the experiment with MCF7 breast; 3.26 µM with SF-295 CNS; 3.04 µM in the experiment on BT-549 breast. Moreover, the values for the TGI in the experiment on MALME-3M melanoma and in the experiment with 786-0 renal were 3.6 µM and 2.99 µM, respectively.
For the compound `OCc1ccc(-c2cscc2-c2ccc(CO)o2)o1`, the GI50 is over 75 µM in the experiment with PC-3 prostate; 16.1 µM with HOP-92 NSCLC; 34.5 µM with SNB-75 CNS; 4.79 µM in the experiment with OVCAR-4 ovarian; 0.57 µM in the experiment with MCF7 breast; 0.923 µM in the experiment with SF-295 CNS. In addition, the values for the GI50 with BT-549 breast, with MALME-3M melanoma and in the experiment with 786-0 renal were over 87.5 µM, over 100 µM and over 33.8 µM, respectively. The TGI was over 100 µM in the experiment with PC-3 prostate; over 94 µM in the experiment with HOP-92 NSCLC; over 100 µM in the experiment on SNB-75 CNS; 49.4 µM in the experiment on OVCAR-4 ovarian; 25.1 µM with MCF7 breast; 20.3 µM in the experiment on SF-295 CNS. The TGI in the experiment on BT-549 breast, in the experiment on MALME-3M melanoma and in the experiment with 786-0 renal was over 100 µM throughout.
Consider `COc1ccc(-c2nc(-c3nc4ccc(F)cc4[nH]3)c3ccccn23)cc1`, for which the GI50 is 6.14 µM in the experiment with PC-3 prostate; 3.67 µM in the experiment with HOP-92 NSCLC; 3.4 µM with SNB-75 CNS; 6.92 µM in the experiment on OVCAR-4 ovarian; 6.15 µM in the experiment with MCF7 breast; 4.84 µM in the experiment on BT-549 breast. For the same compound, the results for the GI50 with MALME-3M melanoma and in the experiment with 786-0 renal were 5.32 µM and 8.82 µM, respectively. For the same compound, the TGI in the experiment on PC-3 prostate was 46.9 µM; with HOP-92 NSCLC, 43.8 µM; in the experiment with SNB-75 CNS it was 12.4 µM; with OVCAR-4 ovarian it was over 100 µM; in the experiment with MCF7 breast, over 100 µM; in the experiment with BT-549 breast, 22.9 µM. The results for the TGI with MALME-3M melanoma and with 786-0 renal were 27.1 µM and 61.5 µM, respectively.
As for `Cc1nn2c(/C=C3/C(=O)Nc4cc(Cl)ccc43)c(-c3ccccc3)nc2s1`, the GI50 in the experiment with PC-3 prostate was 13.8 µM; with SNB-75 CNS, 1.6 µM; in the experiment with OVCAR-4 ovarian it was 1.59 µM; in the experiment on MCF7 breast, 5.84 µM; in the experiment on SF-295 CNS, 11.1 µM; in the experiment on BT-549 breast, 6.63 µM. For the same compound, the GI50 in the experiment on MALME-3M melanoma is 1.89 µM; with 786-0 renal, 2.15 µM. Also, the TGI in the experiment with PC-3 prostate was over 100 µM; in the experiment on SNB-75 CNS, 8.44 µM; with OVCAR-4 ovarian, 3.39 µM; in the experiment with MCF7 breast it was over 100 µM; in the experiment on SF-295 CNS, 38.1 µM; in the experiment with BT-549 breast, over 100 µM. Moreover, the TGI worked out at 3.91 µM with MALME-3M melanoma and 4.37 µM with 786-0 renal.
